The record followed here is BindingDB's records for doi:10.1016/s0960-894x(99)00041-4 (1999).

Numbered stars: 1 amine (or outer) side, 2 acyl side, 3 side chain; on linkers, the order of the positions; unused ones are H or OH. Bridge positions count the residues as written; N and C are the ends. Square brackets hold non-standard residues; d marks the D form. Peptide text beside a SMILES is read from it. X1 = O=C([C@@]1(N[*:1])CCc2ccccc2C1)[*:2]; Atc(2S) = N[C@@]1(C(=O)O)CCc2ccccc2C1; Mpa = O=C(O)CCS; Sar = CNCC(=O)O

This test addresses Oxytocin receptor (Cavia porcellus). As to the kind of experiment: Compound was evaluated for its dissociation constant (Kd) to guinea pig myometrial Oxytocin receptor.

`CC[C@H](C)[C@@H]1NC(=O)[C@]2(CCc3ccccc3C2)NC(=O)CCSSC[C@@H](C(=O)N(C)CC(=O)N[C@@H](CCCN=C(N)N)C(=O)NCC(N)=O)NC(=O)[C@H](CC(N)=O)NC(=O)[C@H](CCC(N)=O)NC1=O` ([Mpa][X1]IQNC[Sar]RG-NH2; disulfide 1-6): binding was put at a Kd of 1920 nM. In the case of `CC[C@H](C)[C@@H]1NC(=O)[C@@H](Cc2c[nH]c3ccccc23)NC(=O)CCSSC[C@@H](C(=O)N(C)CC(=O)N[C@@H](CCCNC(=N)N)C(=O)NCC(N)=O)NC(=O)[C@H](CC(N)=O)NC(=O)[C@H](CCC(N)=O)NC1=O` [Mpa-D-Trp-lle-Gln-Asn-Cys-Sar-Arg-Gly-NH2] it was 38 nM; in that of `CC[C@H](C)[C@@H]1NC(=O)[C@@]2(CCc3ccccc3C2)NC(=O)CCSSC[C@@H](C(=O)N(C)CC(=O)N[C@@H](CCCN=C(N)N)C(=O)NCC(N)=O)NC(=O)[C@H](CC(N)=O)NC(=O)[C@H](CCC(N)=O)NC1=O` ([Mpa][Atc(2S)]IQNC[Sar]RG-NH2; disulfide 1-6), 370 nM.
